Measured values taken from patent US20260285855A1, “HETEROARYL DERIVATIVES AS DDRS INHIBITORS” (CHIESI FARMACEUTICI S.P.A., priority 2023, published 2026).
Read-outs that look alike come from different tables or passages of the source.

How the values were obtained:
DDR1 = molecular target: T1, DDR1 (Homo sapiens, UniProt Q08345); experiment: LanthaScreen Europium Kinase Binding assay, DDR1
T1 construct: purchased Carna Biosciences
Description: (§1) DDR1 and DDR2 binding assays were performed using Life Technologies LanthaScreen™ Europium Kinase Binding assay. […] IC50 values were determined in GraphPad Prism 7.0 software, using 4 parameter model: log (inhibitor) vs. response. IC50 values were converted in Ki using the Cheng-Prusoff equation (Ki-IC50/(1+ [Tracer]/Kd).

DDR2 = molecular target: T2, DDR2 (Homo sapiens, UniProt Q16832); experiment: LanthaScreen Europium Kinase Binding assay, DDR2
T2 construct: purchased Life Technologies
T2 sequence (Q16832 22-855): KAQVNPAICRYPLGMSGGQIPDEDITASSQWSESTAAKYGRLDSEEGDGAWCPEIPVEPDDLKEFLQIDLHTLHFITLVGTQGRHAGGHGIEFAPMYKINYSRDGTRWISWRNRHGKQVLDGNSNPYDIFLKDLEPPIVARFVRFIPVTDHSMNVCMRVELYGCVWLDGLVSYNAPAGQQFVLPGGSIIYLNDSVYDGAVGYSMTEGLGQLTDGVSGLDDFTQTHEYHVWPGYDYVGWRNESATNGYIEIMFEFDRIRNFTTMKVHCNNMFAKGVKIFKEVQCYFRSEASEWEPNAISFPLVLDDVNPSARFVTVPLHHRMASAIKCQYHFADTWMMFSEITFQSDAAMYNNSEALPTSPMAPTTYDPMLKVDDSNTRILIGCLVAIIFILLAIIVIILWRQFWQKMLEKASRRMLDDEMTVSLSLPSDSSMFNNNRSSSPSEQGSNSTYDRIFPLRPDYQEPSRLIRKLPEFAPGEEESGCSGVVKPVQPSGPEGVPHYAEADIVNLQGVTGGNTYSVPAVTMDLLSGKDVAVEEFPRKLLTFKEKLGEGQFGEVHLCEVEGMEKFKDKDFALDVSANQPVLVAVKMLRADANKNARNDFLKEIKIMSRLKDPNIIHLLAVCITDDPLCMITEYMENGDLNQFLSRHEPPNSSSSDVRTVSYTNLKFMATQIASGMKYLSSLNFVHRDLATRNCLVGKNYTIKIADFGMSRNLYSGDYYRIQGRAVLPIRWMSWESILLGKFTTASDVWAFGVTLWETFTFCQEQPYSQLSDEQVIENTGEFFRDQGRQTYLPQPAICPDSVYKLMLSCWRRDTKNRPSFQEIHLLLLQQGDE
Description: as §1

[1] = 5 nM DDR1, 20 nM Kinase Tracer 178, 1 h at rt, Ki from IC50 by Cheng-Prusoff, read-out: Ki DDR1
[2] = 5 nM DDR2, 10 nM Kinase Tracer 178, 1 h at rt, Ki from IC50 by Cheng-Prusoff, read-out: Ki DDR2
[3] = same binding assay, numeric values
[4] = same binding assay, numeric values, read-out: DDR1 Ki
[5] = same binding assay, numeric values, read-out: DDR2 Ki

T1 sequence (Q08345 19-913): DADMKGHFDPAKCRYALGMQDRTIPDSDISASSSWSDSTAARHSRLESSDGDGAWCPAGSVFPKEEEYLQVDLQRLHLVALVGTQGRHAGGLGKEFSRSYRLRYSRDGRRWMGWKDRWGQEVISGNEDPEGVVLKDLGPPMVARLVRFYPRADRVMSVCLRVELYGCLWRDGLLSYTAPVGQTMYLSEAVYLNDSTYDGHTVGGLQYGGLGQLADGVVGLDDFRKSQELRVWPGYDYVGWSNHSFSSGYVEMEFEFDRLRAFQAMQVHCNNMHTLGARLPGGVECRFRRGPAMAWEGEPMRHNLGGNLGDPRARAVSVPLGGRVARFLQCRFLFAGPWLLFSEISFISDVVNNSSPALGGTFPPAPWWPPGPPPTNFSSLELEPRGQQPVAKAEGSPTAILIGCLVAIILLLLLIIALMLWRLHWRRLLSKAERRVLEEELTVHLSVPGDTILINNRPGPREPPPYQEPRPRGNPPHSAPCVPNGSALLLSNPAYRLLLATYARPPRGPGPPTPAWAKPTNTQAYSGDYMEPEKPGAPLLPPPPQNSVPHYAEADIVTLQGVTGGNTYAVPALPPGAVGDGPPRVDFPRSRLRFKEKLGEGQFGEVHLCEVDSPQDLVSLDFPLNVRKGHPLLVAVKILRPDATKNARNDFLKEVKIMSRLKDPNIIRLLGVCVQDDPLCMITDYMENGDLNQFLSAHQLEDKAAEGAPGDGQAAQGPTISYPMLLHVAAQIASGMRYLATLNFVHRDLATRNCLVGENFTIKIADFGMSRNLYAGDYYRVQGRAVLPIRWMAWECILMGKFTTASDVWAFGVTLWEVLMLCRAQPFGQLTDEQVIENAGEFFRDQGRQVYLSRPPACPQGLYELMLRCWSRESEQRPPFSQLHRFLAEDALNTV

| SMILES | Ki (DDR1; [1]) [nM] | Ki (DDR2; [2]) [nM] | DDR1 Ki (nM) (DDR1; [3]) | Ki (DDR1; [4]) [nM] | DDR2 Ki (nM) (DDR2; [3]) | Ki (DDR2; [5]) [nM] |
| --- | --- | --- | --- | --- | --- | --- |
| CC(C)(c1cc(NC(=O)OC2CC3(C2)CN(C(=O)c2cnn4ccsc24)C3)no1)C(F)(F)F [Example 293, 2-(pyrazolo[5,1-b]thiazole-7-carbonyl)-2-azaspiro[3.3]heptan-6-yl(5-(1,1,1-trifluoro-2-methylpropan-2-yl)isoxazol-3-yl)carbamate] | < 5 | < 5 | – | – | – | – |
| Cc1ccc(OC(F)(F)F)cc1NC(=O)OC1CC2(C1)CN(C(=O)c1cnn3ccn(C)c13)C2 [Example 295, 2-(1-methyl-1H-imidazo[1,2-b]pyrazole-7-carbonyl)-2-azaspiro[3.3]heptan-6-yl(2-methyl-5-(trifluoromethoxy)phenyl)carba-mate] | < 5 | < 5 | – | – | – | – |
| Cc1cc(C(F)(F)F)cc(NC(=O)N(C)C2CC3(C2)CN(C(=O)c2cnn4ccn(C)c24)C3)n1 [Example 300, 1-methyl-1-(2-(1-methyl-1H-imidazo[1,2-b]pyrazole-7-carbonyl)-2-azaspiro[3.3]heptan-6-yl)-3-(6-methyl-4-(trifluoromethyl)pyridin-2-yl)urea] | < 5 | 5 to 25 | – | – | – | – |
| Cc1cnc(NC(=O)N(C)C2CC3(C2)CN(C(=O)c2cnn4ccn(C)c24)C3)cc1C(F)(F)F [Example 303, 1-methyl-1-(2-(1-methyl-1H-imidazo[1,2-b]pyrazole-7-carbonyl)-2-azaspiro[3.3]heptan-6-yl)-3-(5-methyl-4-(trifluoromethyl)pyridin-2-yl)urea] | < 5 | 5 to 25 | – | – | – | – |
| O=C(Nc1cncc(C(F)(F)F)c1)NC1CC2(C1)CN(c1cnc3[nH]ncc3c1)C2 [Example 304, 1-(2-(1H-pyrazolo[3,4-b]pyridin-5-yl)-2-azaspiro[3.3]heptan-6-yl)-3-(5-(trifluoromethyl)pyridin-3-yl)urea] | < 5 | 5 to 25 | – | – | – | – |
| O=C(Nc1cc(C(F)(F)F)cnn1)NC1CC2(C1)CN(c1cnc3[nH]ncc3c1)C2 [Example 306, 1-(2-(1H-pyrazolo[3,4-b]pyridin-5-yl)-2-azaspiro[3.3]heptan-6-yl)-3-(5-(trifluoromethyl)pyridazin-3-yl)urea] | < 5 | 5 to 25 | – | – | – | – |
| Cc1ccc(OC(F)(F)F)cc1NC(=O)NC1CC2(C1)CN(c1cnc3[nH]ncc3c1)C2 [Example 307, 1-(2-(1H-pyrazolo[3,4-b]pyridin-5-yl)-2-azaspiro[3.3]heptan-6-yl)-3-(2-methyl-5-(trifluoromethoxy)phenyl)urea] | 5 to 25 | 25 to 100 | – | – | – | – |
| CN(C(=O)Nc1cc(C(F)(F)F)cc(Br)n1)C1CC2(C1)CN(C(=O)c1cnn3ccn(C)c13)C2 [Example 308, 3-(6-bromo-4-(trifluoromethyl)pyridin-2-yl)-1-methyl-1-(2-(1-methyl-1H-imidazo[1,2-b]pyrazole-7-carbonyl)-2-azaspiro[3.3]heptan-6-yl)urea] | < 5 | < 5 | – | – | – | – |
| COc1c(CO)cc(C(F)(F)F)cc1NC(=O)NC1CC2(C1)CN(c1cnc3[nH]ncc3c1)C2 [Example 312, 1-(2-(1H-pyrazolo[3,4-b]pyridin-5-yl)-2-azaspiro[3.3]heptan-6-yl)-3-(3-(hydroxymethyl)-2-methoxy-5-(trifluoromethyl)phenyl)urea] | < 5 | 5 to 25 | – | – | – | – |

Other lines, results leading:

| Ki (DDR1; [1]) [nM] | Ki (DDR2; [2]) [nM] | DDR1 Ki (nM) (DDR1; [3]) | Ki (DDR1; [4]) [nM] | DDR2 Ki (nM) (DDR2; [3]) | Ki (DDR2; [5]) [nM] | SMILES |
| --- | --- | --- | --- | --- | --- | --- |
| < 5 | 5 to 25 | – | – | – | – | O=C(Nc1cc(C(F)(F)F)ncn1)OC1CC2(C1)CN(C(=O)c1cnn3ccsc13)C2 [Example 292, 2-(pyrazolo[5,1-b]thiazole-7-carbonyl)-2-azaspiro[3.3]heptan-6-yl(6-(trifluoromethyl)pyrimidin-4-yl)carbamate] |
| < 5 | < 5 | – | – | – | – | Cn1ccn2ncc(C(=O)N3CC4(CC(OC(=O)Nc5cc(OC(F)(F)F)ccn5)C4)C3)c12 [Example 294, 2-(1-methyl-1H-imidazo[1,2-b]pyrazole-7-carbonyl)-2-azaspiro[3.3]heptan-6-yl(4-(trifluoromethoxy)pyridin-2-yl)carbamate] |
| < 5 | 5 to 25 | – | – | – | – | Cn1ccn2ncc(C(=O)N3CC4(CC(OC(=O)Nc5cc(C(F)(F)F)ccn5)C4)C3)c12 [Example 296, 2-(1-methyl-1H-imidazo[1,2-b]pyrazole-7-carbonyl)-2-azaspiro[3.3]heptan-6-yl(4-(trifluoromethyl)pyridin-2-yl)carbamate] |
| < 5 | 5 to 25 | – | – | – | – | Cn1ccn2ncc(C(=O)N3CC4(CC(OC(=O)Nc5cc(C(F)(F)F)ncn5)C4)C3)c12 [Example 297, 2-(1-methyl-1H-imidazo[1,2-b]pyrazole-7-carbonyl)-2-azaspiro[3.3]heptan-6-yl(6-(trifluoromethyl)pyrimidin-4-yl)carbamate] |
| < 5 | < 5 | – | – | – | – | CCOc1ccc(C(F)(F)F)cc1NC(=O)NC1CC2(C1)CN(C(=O)c1cnn3ccn(C)c13)C2 [Example 298, 1-(2-ethoxy-5-(trifluoromethyl)phenyl)-3-(2-(1-methyl-1H-imidazo[1,2-b]pyrazole-7-carbonyl)-2-azaspiro[3.3]heptan-6-yl)urea] |
| < 5 | < 5 | – | – | – | – | Cn1ccn2ncc(C(=O)N3CC4(CC(OC(=O)Nc5cncc(OC(F)(F)F)c5)C4)C3)c12 [Example 299, 2-(1-methyl-1H-imidazo[1,2-b]pyrazole-7-carbonyl)-2-azaspiro[3.3]heptan-6-yl(5-(trifluoromethoxy)pyridin-3-yl)carbamate] |
| < 5 | < 5 | – | – | – | – | [2H]C([2H])([2H])n1ccn2ncc(C(=O)N3CC4(CC(CC(=O)Nc5cc(OC(F)(F)F)ccn5)C4)C3)c12 [Example 301, 2-(2-(1-(methyl-d3)-1H-imidazo[1,2-b]pyrazole-7-carbonyl)-2-azaspiro[3.3]heptan-6-yl)-N-(4-(trifluoromethoxy)pyridin-2-yl)acetamide] |
| < 5 | < 5 | – | – | – | – | O=C(CC1CC2(C1)CN(C(=O)c1cnn3ccn(C(F)F)c13)C2)Nc1cc(OC(F)(F)F)ccn1 [Example 302, 2-(2-(1-(difluoromethyl)-1H-imidazo[1,2-b]pyrazole-7-carbonyl)-2-azaspiro[3.3]heptan-6-yl)-N-(4-(trifluoromethoxy)pyridin-2-yl)acetamide] |
| < 5 | 5 to 25 | – | – | – | – | CN(C(=O)Nc1cc(C(F)(F)C(F)(F)F)ccn1)C1CC2(C1)CN(C(=O)c1cnn3ccn(C)c13)C2 [Example 305, 1-methyl-1-(2-(1-methyl-1H-imidazo[1,2-b]pyrazole-7-carbonyl)-2-azaspiro[3.3]heptan-6-yl)-3-(4-(perfluoroethyl)pyridin-2-yl)urea] |
| < 5 | 5 to 25 | – | – | – | – | CCc1ncc(C(F)(F)F)cc1NC(=O)NC1CC2(C1)CN(C(=O)c1cnn3ccn(C)c13)C2 [Example 309, 1-(2-ethyl-5-(trifluoromethyl)pyridin-3-yl)-3-(2-(1-methyl-1H-imidazo[1,2-b]pyrazole-7-carbonyl)-2-azaspiro[3.3]heptan-6-yl)urea] |
| 5 to 25 | 25 to 100 | – | – | – | – | CCc1ncc(C(F)(F)F)cc1NC(=O)N(C)C1CC2(C1)CN(C(=O)c1cnn3ccn(C)c13)C2 [Example 310, 3-(2-ethyl-5-(trifluoromethyl)pyridin-3-yl)-1-methyl-1-(2-(1-methyl-1H-imidazo[1,2-b]pyrazole-7-carbonyl)-2-azaspiro[3.3]heptan-6-yl)urea] |
| < 5 | 5 to 25 | – | – | – | – | Cn1ccn2ncc(C(=O)N3CC4(CC(OC(=O)Nc5cc(C(F)(F)F)cnn5)C4)C3)c12 [Example 311, 2-(1-methyl-1H-imidazo[1,2-b]pyrazole-7-carbonyl)-2-azaspiro[3.3]heptan-6-yl(5-(trifluoromethyl)pyridazin-3-yl)carbamate] |
| – | – | did not show a binding affinity | > 500 | did not show a binding affinity | > 500 | O=C(NC1CC2(C1)CN(C(=O)c1cnn3ccncc13)C2)c1cccc(C(F)(F)F)c1 [Example C1, N-(2-(pyrazolo[1,5-a]pyrazine-3-carbonyl)-2-azaspiro[3.3]heptan-6-yl)-3-(trifluoromethyl)benzamide, reference compound] |
| – | – | did not show a binding affinity | > 500 | did not show a binding affinity | > 500 | O=C(Cc1cccc(C(F)(F)F)c1)NC1CC2(C1)CN(C(=O)c1cnn3ccncc13)C2 [Example C2, N-(2-(pyrazolo[1,5-a]pyrazine-3-carbonyl)-2-azaspiro[3.3]heptan-6-yl)-2-(3-(trifluoromethyl)phenyl)acetamide, reference compound] |
